Experimental data reported in patent publication US20160326135A1, “2-HETARYL-PYRIDAZINONE DERIVATIVES AND THEIR USE AS HERBICIDES” (BAYER CROPSCIENCE AKTIENGESELLSCHAFT, priority 2013, published 2016).

What was measured:
Format in all cases: in vivo
Abutilon theophrasti = assay: Pre-emergence herbicidal action against harmful plants; conditions: application rate 320 g/ha, scored visually after 3 weeks, 100% = plants have died, 0% = like control plants
Source text: (§1) Seeds of monocotyledonous and dicotyledonous weed plants and crop plants are laid out in wood-fiber pots in sandy loam and covered with soil. The compounds of the invention, formulated in the form of wettable powders (WP) or as emulsion concentrates (EC), are then applied to the surface of the covering soil in the form of an aqueous suspension or emulsion at a water application rate equating to 600 to 800 I/ha, with addition of 0.2% wetting agent. After the treatment, the pots are placed in a greenhouse and kept under good growth conditions for the trial plants. The damage to the trial plants is scored visually after a trial duration of 3 weeks by comparison with untreated controls (herbicidal activity in percent (%): 100% efficacy=the plants have died, 0% efficacy=like control plants). In this trial, for example, compound no.

Viola tricolor [1] = assay: as above; conditions: application rate 320 g/ha, scored visually after 3 weeks, 100% = plants have died, 0% = like control plants
Source text: as §1

Veronica persica [2] = assay: as above; conditions: application rate 320 g/ha, scored visually after 3 weeks, 100% = plants have died, 0% = like control plants
Source text: as §1

Matricaria inodora [3] = assay: as above; conditions: application rate 320 g/ha, scored visually after 3 weeks, 100% = plants have died, 0% = like control plants
Source text: as §1

Amaranthus retroflexus [4] = assay: as above; conditions: application rate 320 g/ha, scored visually after 3 weeks, 100% = plants have died, 0% = like control plants
Source text: as §1

Echinochloa crus galli [5] = assay: as above; conditions: application rate 320 g/ha, scored visually after 3 weeks, 100% = plants have died, 0% = like control plants
Source text: as §1

Setaria viridis [6] = assay: as above; conditions: application rate 320 g/ha, scored visually after 3 weeks, 100% = plants have died, 0% = like control plants
Source text: as §1

Stellaria media [7] = assay: as above; conditions: application rate 320 g/ha, scored visually after 3 weeks, 100% = plants have died, 0% = like control plants
Source text: as §1

Viola tricolor [8] = assay: Post-emergence herbicidal action against harmful plants; conditions: application rate 80 g/ha, scored visually after about 3 weeks, 100% = plants have died, 0% = like control plants
Protocol: (§2) Seeds of monocotyledonous and dicotyledonous weed and crop plants are laid out in sandy loam in wood-fiber pots, covered with soil and cultivated in a greenhouse under good growth conditions. 2 to 3 weeks after sowing, the trial plants are treated at the one-leaf stage. The compounds of the invention, formulated in the form of wettable powders (WP) or as emulsion concentrates (EC), are then sprayed onto the green parts of the plants in the form of an aqueous suspension or emulsion at a water application rate equating to 600 to 800 I/ha, with addition of 0.2% wetting agent. After the trial plants have been left to stand in a greenhouse under optimal growth conditions for about 3 weeks, the efficacy of the formulations is scored visually in comparison to untreated controls (herbicidal action in percent (%): 100% efficacy=the plants have died, 0% efficacy=like control plants). In this trial, for example, compound no.

Veronica persica [9] = assay: as above; conditions: application rate 80 g/ha, scored visually after about 3 weeks, 100% = plants have died, 0% = like control plants
Protocol: as §2

Matricaria inodora [10] = assay: as above; conditions: application rate 80 g/ha, scored visually after about 3 weeks, 100% = plants have died, 0% = like control plants
Protocol: as §2

Amaranthus retroflexus [11] = assay: as above; conditions: application rate 80 g/ha, scored visually after about 3 weeks, 100% = plants have died, 0% = like control plants
Protocol: as §2

Echinochloa crus galli [12] = assay: as above; conditions: application rate 80 g/ha, scored visually after about 3 weeks, 100% = plants have died, 0% = like control plants
Protocol: as §2

Setaria viridis [13] = assay: as above; conditions: application rate 80 g/ha, scored visually after about 3 weeks, 100% = plants have died, 0% = like control plants
Protocol: as §2

Stellaria media [14] = assay: as above; conditions: application rate 80 g/ha, scored visually after about 3 weeks, 100% = plants have died, 0% = like control plants
Protocol: as §2

Ipomoea purpurea = assay: as above; conditions: application rate 80 g/ha, scored visually after about 3 weeks, 100% = plants have died, 0% = like control plants
Protocol: as §2

Cc1cnn(-c2ccc(C(F)(F)F)c(=O)n2C)c(=O)c1O [1-3, 4-hydroxy-5-methyl-2-(1-methyl-3-(trifluoromethyl)pyrid-2-on-6-yl)-pyridazin-3-one]
at least 80%: herbicidal activity in percent (efficacy) (Abutilon theophrasti) | herbicidal activity in percent (efficacy) (Viola tricolor [1]) | herbicidal activity in percent (efficacy) (Veronica persica [2]) | herbicidal activity in percent (efficacy) (Matricaria inodora [3]) | herbicidal activity in percent (efficacy) (Amaranthus retroflexus [4]) | herbicidal activity in percent (efficacy) (Echinochloa crus galli [5]) | herbicidal activity in percent (efficacy) (Setaria viridis [6]) | herbicidal activity in percent (efficacy) (Stellaria media [7]) | herbicidal action in percent (efficacy) (Viola tricolor [8]) | herbicidal action in percent (efficacy) (Veronica persica [9]) | herbicidal action in percent (efficacy) (Matricaria inodora [10]) | herbicidal action in percent (efficacy) (Amaranthus retroflexus [11]) | herbicidal action in percent (efficacy) (Echinochloa crus galli [12]) | herbicidal action in percent (efficacy) (Setaria viridis [13]) | herbicidal action in percent (efficacy) (Stellaria media [14]) | herbicidal action in percent (efficacy) (Ipomoea purpurea)
